Read-outs that look alike come from different tables or passages of the source.
Target: T1, recombinant human Syk (GST-hSyk fusion protein) (Homo sapiens, UniProt P43405)
T1 construct: purchased Carna Biosciences 08-176
Assay: Homogeneous Time-Resolved Fluorescence (HTRF) assay for the recombinant human Syk enzyme
Type: biochemical
Conditions: 10-dose titration, 25 μM ATP
Outline: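 GST-hSyk (5 pM) preincubated 10 min with compound (0.1% DMSO) in 15 mM Tris-HCl pH 7.5, 2 mM DTT; reaction started with 250 nM biotinylated peptide, 5 mM Mg, 25 μM ATP, 45 min, room temperature. EDTA quench, Eu-anti-phosphotyrosine/SA-APC HTRF read after 30 min; IC50 from 10-dose titration (10 μM–0.508 nM), four-parameter fit.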

[1] = IC50 class, read-out: rhSYK Activity

| IC50 [1] [nM] | IC50 (read-out: rhSYK IC50) [nM] | SMILES |
| --- | --- | --- |
| ≤ 100 | – | Cc1cc(Nc2nccc(C(F)(F)F)n2)cc(-c2cnn(CC3OC(=O)NC3C(C)C)c2)c1 (single isomer, unassigned) [Example 23.4, 4-(1-methylethyl)-5-{[4-(3-methyl-5-{[4-(trifluoromethyl)pyrimidin-2-yl]amino}phenyl)-1H-pyrazol-1-yl]methyl}-1,3-oxazolidin-2-one] |
| ≤ 100 | – | Cc1cc(Nc2nccc(C(F)F)n2)cc(-c2cnn(CC3OC(=O)NC3CO)c2)c1 (single isomer, unassigned) [Example 33.4, 5-{[4-(3-{[4-(difluoromethyl)pyrimidin-2-yl]amino}-5-methylphenyl)-1H-pyrazol-1-yl]methyl}-4-(hydroxymethyl)-1,3-oxazolidin-2-one] |
| ≤ 100 | – | Cc1cc(Nc2nccc(C)n2)cc(-c2cnn(CC3OC(=O)NC3C(C)C)c2)c1 (single isomer, unassigned) [Example 23.16, 4-(1-methylethyl)-5-[(4-{3-methyl-5-[(4-methylpyrimidin-2-yl)amino]phenyl}-1H-pyrazol-1-yl)methyl]-1,3-oxazolidin-2-one] |
| ≤ 100 | – | Cc1cc(Nc2nccc(C(C)(F)F)n2)cc(-c2cnn(CC(C)(O)C(C)(C)O)c2)c1 (centres unmarked) [Example 22.4, 1-[4-(3-{[4-(1,1-difluoroethyl)pyrimidin-2-yl]amino}-5-methylphenyl)-1H-pyrazol-1-yl]-2,3-dimethylbutane-2,3-diol] |
| ≤ 100 | – | Cc1cc(Nc2nccc(C(F)F)n2)cc(-c2cnn(CC3OC(=O)NC3CO)c2)c1 (single isomer, unassigned) [Example 33.2, 5-{[4-(3-{[4-(difluoromethyl)pyrimidin-2-yl]amino}-5-methylphenyl)-1H-pyrazol-1-yl]methyl}-4-(hydroxymethyl)-1,3-oxazolidin-2-one] |
| ≤ 100 | – | Cc1cc(Nc2nccc(C(F)(F)F)n2)cc(-c2cnn(CC(C)(O)CC#N)c2)c1 (centres unmarked) [Example 20.3, 3-hydroxy-3-methyl-4-[4-(3-methyl-5-{[4-(trifluoromethyl)pyrimidin-2-yl]amino}phenyl)-1H-pyrazol-1-yl]butanenitrile] |
| ≤ 100 | – | CCOC(=O)C(C)n1cc(-c2cc(C)cc(Nc3nccc(C(F)(F)F)n3)c2)cn1 (centres unmarked) [Example 3.30, ethyl 2-[4-(3-methyl-5-{[4-(trifluoromethyl)-pyrimidin-2-yl]amino}phenyl)-1H-pyrazol-1-yl]propanoate] |
| ≤ 100 | 2.6 | Cc1cc(Nc2nccc(C(F)F)n2)cc(-c2cnn(C3CCC(C)(C)C(O)C3O)c2)c1 (centres unmarked) [Example 22.7, 6-[4-(3-{[4-(difluoromethyl)pyrimidin-2-yl]amino}-5-methylphenyl)-1H-pyrazol-1-yl]-3,3-dimethylcyclohexane-1,2-diol] |
| ≤ 100 | – | Cc1cc(Nc2nccc(C(F)F)n2)cc(-c2cnn(CC(C)(O)CC#N)c2)c1 (centres unmarked) [Example 20.7, 4-[4-(3-{[4-(difluoromethyl)pyrimidin-2-yl]amino}-5-methylphenyl)-1H-pyrazol-1-yl]-3-hydroxy-3-methylbutanenitrile] |
| ≤ 100 | – | Cc1cc(Nc2nccc(C(F)(F)F)n2)cc(-c2cnn(CCCO)c2)c1 [Example 3.31, 3-[4-(3-methyl-5-{[4-(trifluoromethyl)pyrimidin-2-yl]amino}-phenyl)-1H-pyrazol-1-yl]propan-1-ol] |
| ≤ 100 | 48.3 | Cc1cc(Nc2ncccn2)cc(-c2cnn(C3CC(C(N)=O)C3)c2)c1 (single isomer, unassigned) [Example 30.1, 3-(4-(3-Methyl-5-(pyrimidin-2-ylamino)phenyl)-1H-pyrazol-1-yl)cyclobutanecarboxamide] |
| ≤ 100 | – | Cc1cc(Nc2nccc(C(F)F)n2)cc(-c2cnn(CC(C)(C)NC(=O)OCCF)c2)c1 [Example 27.10, 2-fluoroethyl {2-[4-(3-{[4-(difluoromethyl)pyrimidin-2-yl]amino}-5-methylphenyl)-1H-pyrazol-1-yl]-1,1-dimethylethyl}carbamate] |
| ≤ 100 | – | Cc1cc(Nc2nccc([C@H](C)F)n2)cc(-c2cnn(CC(C)(O)CO)c2)c1 (single isomer, unassigned) [Example 25.7] |
| ≤ 100 | – | O=C(O)CCc1cnn(-c2cccc(Nc3cc(C(F)(F)F)ccn3)n2)c1 [Example 18.1, 3-(1-(6-((4-(trifluoromethyl)pyridin-2-yl)amino)pyridin-2-yl)-1H-pyrazol-4-yl)propanoic acid] |
| ≤ 100 | – | Cc1cc(Nc2nccc(C(F)(F)F)n2)cc(-c2cnn(C3CCC(C(=O)O)CC3O)c2)c1 (centres unmarked) [Example 5.38, 3-hydroxy-4-[4-(3-methyl-5-{[4-(trifluoromethyl)pyrimidin-2-yl]amino}phenyl)-1H-pyrazol-1-yl]cyclohexanecarboxylic acid] |
| ≤ 100 | – | Cc1cc(Nc2nccc(C(F)(F)F)n2)cc(-c2cnn(CC(C)(O)C(N)=O)c2)c1 (single isomer, unassigned) [Example 8.3, 2-hydroxy-2-methyl-3-[4-(3-methyl-5-{[4-(trifluorometh-yl)pyrimidin-2-yl]amino}phenyl)-1H-pyrazol-1-yl]propanamide] |
| ≤ 100 | – | Cc1cc(Nc2cc(C(F)F)ccn2)nc(-c2cnn(C(C)C3CNC(=O)O3)c2)c1 (centres unmarked) [Example 3.88, 5-{1-[4-(6-{[4-(difluoromethyl)pyridin-2-yl]amino}-4-methylpyridin-2-yl)-1H-pyrazol-1-yl]ethyl}-1,3-oxazolidin-2-one] |
| ≤ 100 | – | Cc1cc(Nc2nccc(C(F)(F)F)n2)cc(-c2cnn(CC3COCCO3)c2)c1 (centres unmarked) [Example 3.9, N-{3-[1-(1,4-dioxan-2-ylmethyl)-1H-pyrazol-4-yl]-5-methyl-phenyl}-4-(trifluoro-methyl)pyrimidin-2-amine] |
| ≤ 100 | – | Cc1cc(Nc2nccc(C)n2)cc(-c2cnn(CC3OC(=O)NC3(C)C)c2)c1 (centres unmarked) [Example 3.105, 4,4-dimethyl-5-[(4-{3-methyl-5-[(4-methylpyrimidin-2-yl)amino]phenyl}-1H-pyrazol-1-yl)methyl]-1,3-oxazolidin-2-one] |
| 100 to 1000 | – | Cc1cc(Nc2nccc(C(F)(F)F)n2)cc(-c2cnn(C[C@H](O)C(=O)NCCCN3CCCC3=O)c2)c1 [Example 6.10, (2S)-2-hydroxy-3-[4-(3-methyl-5-{[4-(trifluorometh-yl)pyrimidin-2-yl]amino}phenyl)-1H-pyrazol-1-yl]-N-[3-(2-oxopyrrolidin-1-yl)propyl]propan-amide] |

The remaining lines, values behind:

| SMILES | IC50 [1] [nM] | IC50 (read-out: rhSYK IC50) [nM] |
| --- | --- | --- |
| Cc1cc(Nc2nccc(C(F)(F)F)n2)cc(-c2cnn3cccnc23)c1 [Example 2.37, N-(3-methyl-5-pyrazolo[1,5-a]pyrimidin-3-ylphenyl)-4-(trifluoromethyl)pyrimidin-2-amine] | 100 to 1000 | – |
| Cc1cc(Nc2nccc(C(C)O)n2)cc(-c2cnn(C[C@](C)(O)CO)c2)c1 (stereo partly drawn) [Example 2.87, (2S)-3-[4-(3-{[4-(1-hydroxyethyl)pyrimidin-2-yl]amino}-5-methylphenyl)-1H-pyrazol-1-yl]-2-methylpropane-1,2-diol] | ≤ 100 | – |
| C[C@@](O)(CO)Cn1cc(-c2cc(F)cc(Nc3nccc(C(F)(F)F)n3)c2)cn1 [Example 2.91, (2S)-3-[4-(3-fluoro-5-{[4-(trifluoromethyl)pyrimidin-2-yl]amino}phenyl)-1H-pyrazol-1-yl]-2-methylpropane-1,2-diol] | ≤ 100 | – |
| Cc1cc(Nc2nccc(C)n2)cc(-c2cnn(CC3CNC(=O)O3)c2)c1 (centres unmarked) [Example 2.18, 5-[(4-{3-methyl-5-[(4-methylpyrimidin-2-yl)amino]phenyl}-1H-pyrazol-1-yl)methyl]-1,3-oxazolidin-2-one] | ≤ 100 | – |
| O=C1NCC(Cn2cc(-c3cccc(Nc4nccc(C(F)F)n4)c3)cn2)O1 (centres unmarked) [Example 2.66, 5-{[4-(3-{[4-(difluoromethyl)pyrimidin-2-yl]amino}phenyl)-1H-pyrazol-1-yl]methyl}-1,3-oxazolidin-2-one] | ≤ 100 | – |
| Cc1cc(Nc2nccc(C(C)(F)F)n2)cc(-c2cn[nH]c2)c1 [Example 1.47, 4-(1,1-difluoroethyl)-N-[3-methyl-5-(1H-pyrazol-4-yl)phenyl]pyrimidin-2-amine] | ≤ 100 | – |
| Cc1cc(Nc2nccc(C(F)(F)F)n2)cc(-c2cc[nH]n2)c1 [Example 1.7, N-[3-methyl-5-(1H-pyrazol-3-yl)phenyl]-4-(trifluoromethyl)pyrimidin-2-amine] | ≤ 100 | – |
| COc1nc(Nc2cc(C)cc(-c3cnn(CCC(N)=O)c3)c2)ncc1Cl [Example 2.7, 3-(4-{3-[(5-chloro-4-methoxypyrimidin-2-yl)amino]-5-methylphenyl}-1H-pyrazol-1-yl)propanamide] | ≤ 100 | – |
| Cc1cc(Nc2nccc(C(F)F)n2)cc(-c2cnn(CC3CCNC(=O)O3)c2)c1 (centres unmarked) [Example 2.78, 6-{[4-(3-{[4-(difluoromethyl)pyrimidin-2-yl]amino}-5-methylphenyl)-1H-pyrazol-1-yl]methyl}-1,3-oxazinan-2-one] | ≤ 100 | – |
| O=C1NCC(Cn2cc(-c3cccc(Nc4nccc(C(F)(F)F)n4)c3)cn2)O1 (centres unmarked) [Example 2.34, 5-{[4-(3-{[4-(trifluoromethyl)pyrimidin-2-yl]amino}phenyl)-1H-pyrazol-1-yl]methyl}-1,3-oxazolidin-2-one] | ≤ 100 | – |
| Cc1cc(Nc2ncc(F)c(C)n2)cc(-c2cnn(CCC(N)=O)c2)c1 [Example 2.6, 3-(4-{3-[(5-fluoro-4-methylpyrimidin-2-yl)amino]-5-methylphenyl}-1H-pyrazol-1-yl)propanamide] | ≤ 100 | – |
| O=C(O)C1CCC(n2cc(-c3cc(Cl)cc(Nc4nccc(C(F)(F)F)n4)c3)cn2)CC1 (centres unmarked) [Example 1.61, 4-[4-(3-chloro-5-{[4-(trifluoromethyl)pyrimidin-2-yl]amino}phenyl)-1H-pyrazol-1-yl]cyclohexanecarboxylic acid] | ≤ 100 | – |
| COc1nc(Nc2cc(C)cc(-c3cnn(CC4CNC(=O)O4)c3)c2)ncc1F (centres unmarked) [Example 2.25, 5-[(4-{3-[(5-fluoro-4-methoxypyrimidin-2-yl)amino]-5-methylphenyl}-1H-pyrazol-1-yl)methyl]-1,3-oxazolidin-2-one] | ≤ 100 | – |
